Data taken from paper PMC12679585, “Design, synthesis, and characterization of novel 5-ethylsulfonyl-indazole-3-carboxamides as dual VEGFR-2 and EGFR inhibitors: apoptotic antiproliferative and immunomodulatory evaluations” (RSC Advances, 2025).
Where “and” joins values, the source holds several entries; their conditions need not be identical. Identical values can stand only once.

Key:
IL-6 = IL-6 level by qRT-PCR in HCT-116 cells; conditions: Homo sapiens, HCT-116, read-out: IL-6 (% inhibition)
Description: (§4) The reference molecule was dexamethasone, a drug that uniformly regulates the immune system.
TNF-α and IL6 a determination
(§5) determined using of q RT-PCR technique. By using q RTPCR (reference), the amount
(§6) treated HCT-116 cells was measured (at the IC50 concentrations). Total RNA was
(§7) accordance with the manufacturer's instructions (RNeasy mini kit, Qiagen, Germany).
(§8) Following RNA extraction, the Revert Aid First Strand cDNA Synthesis kit (Thermo
(§9) Scientific, USA) was used to create cDNA. The Rotor-Gene Q real-time PCR thermal
(§10) cycler was used to amplify target cDNA for apoptosis markers and GAPDH [as a
(§11) normalization (housekeeping) gene] using one step RT-PCR SYBR® Green kit Master
(§12) Mix (Bio-Rad Laboratories, USA). Two microliters of cDNA were combined with one
(§13) microliter of forward primer, one microliter of reverse primer, ten microliters of master
(§14) mixture, and twenty microliters of nuclease-free water to complete the reaction volume.
(§15) Every experiment was carried out three times.
(§16) Quantitative Real Time Reverse-Transcriptase PCR (qRT-PCR) primer sequences
TNF-α : R 5'- [sequence] -3'.
IL6 : R 5'- [sequence] -3
GAPDH : R 5’- [sequence]-3’

Caspase-8 = Caspase-8 activation assay in HCT-116 cells; conditions: for Caspase-8 fold change: relative to control
TNF-α = TNF-α level by qRT-PCR in HCT-116 cells; conditions: for TNF-α (% inhibition): HCT-116 cells, 24 hours, at IC50 against HCT-116 (8g 24 nM, 8h 23 nM), qRT-PCR
Description: as §4
TNF-α and IL6 a determination
as §5, §6, §7, §8, §9, §10, §11, §12, §13, §14, §15, §16
TNF-α : R 5'- [sequence] -3'.
IL6 : R 5'- [sequence] -3
GAPDH : R 5’- [sequence]-3’

WI-38 = assay: In vitro cytotoxicity against normal human cells (MTT); type: cell-based; conditions: for Selectivity index (SI), HCT-116: WI-38 versus HCT-116; for Selectivity index (SI), MCF-7: WI-38 versus MCF-7; for IC50: normal human diploid cell line WI-38, MTT
Description: (§1) The results indicated a favorable safety margin for the evaluated compounds about normal cells, Table 5.

[1] = as above; type: cell-based; conditions: human, WI-38 cells (normal human diploid cell line), normal human diploid cell line WI-38, MTT
Description: as §1

p53 = assay: Apoptotic markers assay: p53 level in HCT-116 cells; type: cell-based, human
Description: (§2) Appendix A gives more details.
(§3) Apoptosis dysregulation is a hallmark of human cancer, resulting in uncontrolled proliferation, insufficient response to treatments, and the formation of drug-resistant cells.[60] As a result, current anticancer therapies are recognized for their ability to induce apoptosis in cancer cells via both extrinsic and intrinsic routes.[56]
The ability of p53 overexpression to trigger apoptosis may clarify the common inactivation of p53 enzymes by cancer cells during transformation.[63]

Bcl-2 = assay: Apoptotic markers assay: Bcl-2 level in HCT-116 cells; type: cell-based, human
Description: as §2, §3
The Bcl-2 protein family, comprising pro-apoptotic proteins (Bax) and anti-apoptotic proteins (Bcl-2), primarily regulates apoptosis. […] As a result, we evaluated the level of Bcl-2 and Bax proteins in HCT-116 colorectal cancer cells subjected to treatments with compounds 8g and 8h. […]
wash solution to every well. Repeat the wash 4 more times for a total of 5 washes. After the final wash, empty or aspirate the wells and firmly tap the plate on a lint free paper towel to remove any remaining wash buffer. Pipet 100 μL of yellow Antibody into each well, except the Blank. Seal the plate and incubate at room temperature on a plate shaker for 1 hour at ~500 rpm. Empty the contents of the wells and wash by adding 400 μL of […]
towel to remove any remaining wash buffer. Add 100 μL of blue Conjugate to each […]
for 30 minutes at ~500 rpm. Empty the contents of the wells and wash by adding 400 μL of wash solution to every well. Repeat the wash 4 more times for a total of 5 washes.
After the final wash, empty or aspirate the wells and firmly tap the plate on a lint free paper towel to remove any remaining wash buffer. Pipet 100 μL of Substrate Solution into each well. Incubate for 30 minutes at room temperature on a plate shaker at ~500 rpm. Pipet 100 μL Stop Solution to each well. Blank the plate reader against the Blank wells, read the optical density at 450 nm. Calculate the average net Optical Density (OD) bound for each standard and sample by subtracting the average Blank OD from the average OD for each standard and sample. […]
Approximate a straight line through the points. The concentration of Bax in the unknowns can be determined by interpolation. […]

Caspase-3 = Caspase-3 activation assay in HCT-116 cells; type: cell-based, human; conditions: for Caspase-3 fold change: relative to control
Description: as §2
Additionally, activating caspases is essential for both initiating and terminating the apoptotic process.[64] Caspase-3 is an essential enzyme that cleaves several proteins within cells, leading to apoptotic cell death.[65] […]
be read immediately after the Stop Solution is added or within one hour if the microwell strips are stored at 2 - 8°C in the dark. Read the absorbance of each microwell on a spectrophotometer using 450 nm as the primary wavelength.
4.2.5. Caspase-3 activation assay
Allow all reagents to reach room temperature before use. Gently mix all liquid reagents prior to use. Determine the number of 8-well strips needed for the assay. Insert these in the frame(s) for current use. Add 100 μl of the Standard Diluent Buffer to the zero standard wells. Well(s) reserved for chromogen blank should be left empty. Add 100 μl of standards and controls or diluted samples to the appropriate microtiter wells. The sample dilution chosen should be optimized for each experimental system. Tap gently on side of plate to mix. Cover wells with plate cover and incubate for 2 hours at room temperature. Thoroughly aspirate or decant solution from wells and discard the liquid, Wash wells 4 times. Pipette 100 μl of Caspase-3 (Active) Detection Antibody solution into each well except the chromogen blank(s). Tap gently on the side of the plate to mix. Cover plate with plate cover and incubate for 1 hour at room temperature.
Thoroughly aspirate or decant solution from wells and discard the liquid, Wash wells 4 times. Add 100 μl Anti-Rabbit IgG HRP Working Solution to each well except the chromogen blank(s). Prepare the working dilution as described in Preparing IgG HRP.
Cover wells with the plate cover and incubate for 30 minutes at room temperature.
Thoroughly aspirate or decant solution from wells and discard the liquid. Wash wells 4 times. Add 100 μl of Stabilized Chromogen to each well. The liquid in the wells will […]
begin to turn blue. […] The
Tap side of plate gently to mix.
Use a curve fitting software to generate […]
for the dilution in step 3.
4.2.6. Caspase-8/9 activation assay
This lysate was diluted in […]

Caspase-9 = Caspase-9 activation assay in HCT-116 cells; conditions: for Caspase-9 fold change: relative to control
Bax = assay: Apoptotic markers assay: Bax level in HCT-116 cells; type: cell-based, human; conditions: for Bax fold change: relative to untreated control
[2] = Homo sapiens, HCT-116, read-out: TNF-α (% inhibition), HCT-116 cells, 24 hours, at IC50 against HCT-116 (8g 24 nM, 8h 23 nM), qRT-PCR

For `CCS(=O)(=O)c1ccc2[nH]nc(C(=O)NNC(=O)NC3CCCCCC3)c2c1` [Compound 8h, 2-(5-(Ethylsulfonyl)-1H-indazole-3-carbonyl)-N-(cycloheptyl)hydrazine-1-carboxamide], the inhibition at 0.023 µM (IL-6) was 91%, the “Caspase-8 Conc.” value (Caspase-8) was 2.15 ± 0.20 ng/mL and the Caspase-8 fold change (Caspase-8) was 21 fold and 21.50 fold. The “TNF-α (% inhibition)” value (TNF-α) was 82%, the inhibition at 0.023 µM (TNF-α; [2]) was ~80% and the “Selectivity index (SI), HCT-116” value (WI-38) was >6.5. For the same compound, the “Selectivity index (SI), MCF-7” value (WI-38) was >6.0, the IC50 (WI-38) was > 150 nM and the IC50 [1] was > 120 nM. It also gave a p53 level (p53) of 355 ± 2 pg/mL, a Bcl-2 level (Bcl-2) of 1.30 ± 0.001 ng/mL and a Bcl-2 fold reduction (Bcl-2; relative to untreated control) of 3.90 fold. The “Caspase-3 Conc.” value (Caspase-3) was 510 ± 4 pg/mL and 510 ± 5 pg/mL, the Caspase-3 fold change (Caspase-3) was 7.90 fold and the “Caspase-9 Conc.” value (Caspase-9) was 23 ± 1 ng/mL. The Caspase-9 fold change (Caspase-9) was 23 fold, the Bax level (Bax) was 510 ± 3 pg/mL and the Bax fold change (Bax) was 8.50 fold.

In the case of `CCS(=O)(=O)c1ccc2[nH]nc(C(=O)NNC(=O)NC34CC5CC(CC(C5)C3)C4)c2c1` [Compound 8g, 2-(5-(Ethylsulfonyl)-1H-indazole-3-carbonyl)-N-(adamantan-1-yl)hydrazine-1-carboxamide], the inhibition at 0.024 µM (IL-6) is reported as 86%, the “Caspase-8 Conc.” value (Caspase-8) is reported as 1.80 ± 0.10 ng/mL and the Caspase-8 fold change (Caspase-8) is reported as 18 fold and 18.00 fold. The “TNF-α (% inhibition)” value (TNF-α) was 79%, the inhibition at 0.024 µM (TNF-α; [2]) was ~80% and the “Selectivity index (SI), HCT-116” value (WI-38) was >6.0. For the same compound, the “Selectivity index (SI), MCF-7” value (WI-38) was >5.0, the IC50 (WI-38) was > 150 nM and the IC50 [1] was > 120 nM. The p53 level (p53) was 320 ± 2 pg/mL, the Bcl-2 level (Bcl-2) was 1.60 ± 0.001 ng/mL and the “Caspase-3 Conc.” value (Caspase-3) was 490 ± 3 pg/mL and 490 ± 5 pg/mL. The Caspase-3 fold change (Caspase-3) was 7.50 fold, the “Caspase-9 Conc.” value (Caspase-9) was 21 ± 3 ng/mL and the Caspase-9 fold change (Caspase-9) was 21 fold. For the same compound, the Bax level (Bax) was 490 ± 2 pg/mL and the Bax fold change (Bax) was 8.20 fold.
